Binding data for 1 molecule are collected here from PMC8787815 (2022).

The experiment has as its system 6xHis mCherry F30-2xdBroccoli mRNA transcript (RNA, aptamer) GGGAGACCACAACGGUUUCCCUCUAGAAAUAAUUUUGUUUAACUUUAAGAAGGAGAUAUACCAUGUCUGGUUCUCAUCAUCAUCAUCAUCAUGGUAGCAGCGGCGAAAACCUGUAUUUUCAGUCCAUGGUGAGCAAGGGCGAGGAGGAUAACAUGGCCAUCAUCAAGGAGUUCAUGCGCUUCAAGGUGCACAUGGAGGGCUCCGUGAACGGCCACGAGUUCGAGAUCGAGGGCGAGGGCGAGGGCCGCCCCUACGAGGGCACCCAGACCGCCAAGCUGAAGGUGACCAAGGGUGGCCCCCUGCCCUUCGCCUGGGACAUCCUGUCCCCUCAGUUCAUGUACGGCUCCAAGGCCUACGUGAAGCACCCCGCCGACAUCCCCGACUACUUGAAGCUGUCCUUCCCCGAGGGCUUCAAGUGGGAGCGCGUGAUGAACUUCGAGGACGGCGGCGUGGUGACCGUGACCCAGGACUCCUCCCUGCAGGACGGCGAGUUCAUCUACAAGGUGAAGCUGCGCGGCACCAACUUCCCCUCCGACGGCCCCGUAAUGCAGAAGAAGACCAUGGGCUGGGAGGCCUCCUCCGAGCGGAUGUACCCCGAGGACGGCGCCCUGAAGGGCGAGAUCAAGCAGAGGCUGAAGCUGAAGGACGGCGGCCACUACGACGCUGAGGUCAAGACCACCUACAAGGCCAAGAAGCCCGUGCAGCUGCCCGGCGCCUACAACGUCAACAUCAAGUUGGACAUCACCUCCCACAACGAGGACUACACCAUCGUGGAACAGUACGAACGCGCCGAGGGCCGCCACUCCACCGGCGGCAUGGACGAGCUGUACAAGGGCAGCUAAAGGGUGAUCUUGCCAUGUGUAUGUGGGAGACGGUCGGGUCCAUCUGAGACGGUCGGGUCCAGAUAUUCGUAUCUGUCGAGUAGAGUGUGGGCUCAGAUGUCGAGUAGAGUGUGGGCUCCCACAUACUCUGAUGAUCCAGACGGUCGGGUCCAUCUGAGACGGUCGGGUCCAGAUAUUCGUAUCUGUCGAGUAGAGUGUGGGCUCAGAUGUCGAGUAGAGUGUGGGCUGGAUCAUUCAUGGCAACGGCUGCUAACAAAGCCCGAAAGGAAGCUGAGUUGGCUGCUGCCACCGCUGAGCAAUAACUAGCAUAACCCCUUGGGGCCUCUAAACGGGUCUUGAGGGGUUUUUUGCUGAAAGGAGGAACU
Nature of the experiment: fluorescence activation (in-gel staining; plate reader). The settings on record: PURExpress reaction with 10 μM DFHBI, 80.4 mM sucrose, 30 °C; also in-gel DFHBI staining; qualitative.

As for `CC1=N/C(=C\c2cc(F)c(O)c(F)c2)C(=O)N1C`, the binding entry is “yes”.
